Patent US20110152267A1, “Compositions and Methods for Treating Hyperproliferative Disorders” (Texas Tech University System, priority 2009, published 2011)

Tests used:
[1] = system: MCF-7 breast adenocarcinoma cell line; assay: DIMSCAN cytotoxicity, fenretinide + L-threo-sphinganines 3:1 (Example B14); type: cell-based, human; details: 96 h
Experimental: (§1) Cytotoxicity Assay—Once again, cytotoxicity is determined using the DIMSCAN assay system (R. Proffitt et al., Cytometry 24, 204-213 (1996); T. Frgala et al., Mol Cancer Ther. 6:886-97, 2007). The system employs digital imaging microscopy to quantify viable cells, which selectively accumulate fluorescein diacetate to become brightly fluorescent. The system is capable of measuring cytotoxicity over a 4-5 log dynamic range by quenching the residual fluorescence of dead and dying cells with eosin Y and quantifying the total fluorescence of viable cells using digital thresholding. Measured fluorescence is directly proportionate to the number of viable cells. A comparison of the total fluorescence of a drug-treated cell population to the fluorescence of a similar number of untreated cells yields a survival fraction. In brief, 2000 to 10,000 cells/well (depending on size and growth rates) are replicate plated into 60 wells of a 96-well tissue culture plate in 0.1 mL of whole medium and allowed to attach overnight. Drug(s) are then added in 0.05 mL of whole medium to the final concentrations indicated. Drugs (fenretinide, and various chain length L-threo-sphinganines) were tested both as single agents and in a 3:1 ratio of fenretinide:sphinganine. C18-L-threo-sphinganine, or “safingol,” was also tested and results shown for reference. There are 12 wells treated per drug concentration. Twelve wells receive drug vehicle-only to the appropriate final concentration and serve as controls for the plate. Cells are incubated for 96 hours at 37° C. in ambient air with 5% CO2. Fluorescein diacetate is then added to each well in 0.05 mL media to a final concentration of 8 microgram/mL. Cells are incubated for a further 15 minutes at 37° C. and 0.03 mL of 0.5% eosin Y is added to each well. Total fluorescence of viable cells is then measured by digital imaging microscopy. Results were graphed as the ratio of the fluoresecence of drug-treated wells to non-drug treated control wells (i.e., Survival Fraction). All tests were performed at least twice. Representative results are shown.
(§2) The Combination Index (CI) is a term to describe mathematical modeling of the pharmacologic effects on cytotoxicity (cell death) of two drugs in combination based. Cytotoxic “synergy” is defined as a cell death affect which is greater than would be expected from a simple product of the single agent cytotoxicities alone (i.e. an “additive” effect). By Chou-Talalay analysis, a CI<0.9 on a Fraction Affected (“Fa”, i.e. fraction of cells killed) indicates synergy, with smaller numbers indicating greater synergy; a CI of 0.9-1.1 signifies an additive or near-additive effect; and a CI>1.1 means the drug combination is antagonistic.
Fenretinide and L-threo-sphinganines tested in human breast adenocarcinoma (breast cancer) cell lines, MCF-7 and MDA-MB-231.

[2] = system: HT-29 colon cancer cell line; assay: DIMSCAN cytotoxicity dose-response with fenretinide, with or without D-threo-PPMP (Examples A, FIGS. 4, 10, 15, 21-23); type: cell-based, human; details: +96 hrs; for C.I. of D-threo-PPMP with fenretinide+L-threo-sphinganine (three drug combination): D-threo-PPMP fixed 10 uM, at most doses; for C.I. (Combination Index) with fenretinide: oxygen not stated, at one or more doses
Experimental: Cytotoxicity Assay: Cytotoxicity in cell lines was determined using a fluorescence-based assay employing digital imaging microscopy (DIMSCAN)(after Fragala, et al, Mol Cancer Ther, 6:886-897, 2007). DIMSCAN quantitates viable cells which selectively accumulate fluorescein diacetate and is capable of measuring cytotoxicity over a 4-5 log dynamic range by quantifying total fluorescence per well (which is proportional to viable, clonogenic cells) after eliminating background fluorescence using digital thresholding and eosin Y quenching. Briefly, cell lines were seeded into 96-well plates in 100 µL of complete culture medium (10-20% serum) per well. Cells were incubated overnight in 2%, 5% or 20% oxygen (room air) prior to addition of drugs in […] volumes of complete medium to various final drug concentrations in replicates of 12 wells per concentration. In assays employing D-threo-PPMP, PPMP was employed at a fixed, minimally-toxic, final concentration of 10 μM in each well. Control wells received ethanol (final concentration=0.12%-0.20%) in complete medium equivalent to the maximum final ethanol concentration of drug-treated wells. Plates were incubated at various oxygen concentrations to simulate physiological hypoxia (i.e., 2% oxygen=typical solid tumor oxygen levels; 5%=bone marrow oxygen levels for leukemias; 20% room air=supraphysiological oxygen for comparison with typical laboratory culture conditions). Plates were assayed at 3-4 days after initiating drug exposure depending on the growth properties of each cell line, to allow for maximum cell death and outgrowth of surviving cells. To measure cytotoxicity, FDA (stock solution of 1 mg/ml in DMSO) was added, in 50 µL of complete medium per well, to a final concentration of 10 µg/ml. The plates were incubated for an additional 15-30 minutes at 37 C and then 30 µL of eosin Y (0.5% in normal saline) was added per well. Total fluorescence of each well was then measured using digital imaging microscopy.
FIGS. 1 to 26 illustrate the effect (Examples A1 through A26) of the claimed invention and were carried out using the procedures disclosed herein.

[3] = system: CRL-2091 normal human fibroblast cell line; assay: DIMSCAN cytotoxicity, fenretinide + L-threo-sphinganines 3:1 (Example B1); type: cell-based; details: CRL-2091, 20% O2, 96 h
Experimental: as §1, §2
(§3) Fenretinide and L-threo-sphinganines tested in normal human fibroblast (normal skin cell) cell lines, CRL-2091 and CRL-2076.

[4] = system: CRL-2076 normal human fibroblast cell line; assay: as above; type: cell-based; details: CRL-2076, 20% O2, 96 h
Experimental: as §1, §2, §3

[5] = system: CHLA-266 primitive neuroectodermal tumor (PNET) cell line; assay: DIMSCAN cytotoxicity, fenretinide + L-threo-sphinganines 3:1 (Example B9); type: cell-based, human; details: 96 h
Experimental: as §1, §2
Fenretinide and L-threo-sphinganines tested in human primitive neuroectodermal tumor (PNET) (brain cancer) cell line, CHLA-266.

[6] = 4-HPR 1.5 μM + L-threo-sphinganine 0.5 μM
[7] = 4-HPR 3 μM + L-threo-sphinganine 1 μM
[8] = 4-HPR 6 μM + L-threo-sphinganine 2 μM
[9] = 4-HPR 9 μM + L-threo-sphinganine 3 μM

Structure (SMILES) | CI (Combination Index) [1, 6] | Fa (fraction affected) [1, 6] | CI (Combination Index) [1, 7] | Fa (fraction affected) [1, 7] | CI (Combination Index) [1, 8] | Fa (fraction affected) [1, 8] | CI (Combination Index) [1, 9] | Fa (fraction affected) [1, 9] | CI (Combination Index) [3, 6] | Fa (fraction affected) [3, 6] | CI (Combination Index) [3, 7] | Fa (fraction affected) [3, 7] | CI (Combination Index) [3, 8] | Fa (fraction affected) [3, 8] | CI (Combination Index) [3, 9] | Fa (fraction affected) [3, 9] | CI (Combination Index) [4, 6] | Fa (fraction affected) [4, 6] | CI (Combination Index) [4, 7] | Fa (fraction affected) [4, 7] | further results
CCCCCCCCCCCCCCCC[C@H](O)[C@@H](N)CO [C19, (2S,3S)-2-amino-1,3-nonadecanediol] | 1.2 | 0.138 | 0.8 | 0.736 | 0.8 | 0.965 | 0.9 | 0.991 |  |  |  |  |  |  |  |  |  |  |  |  | C.I. of D-threo-PPMP with fenretinide+L-threo-sphinganine (three drug combination) ([2]; 20% oxygen): < 1; C.I. (Combination Index) with fenretinide [2]: < 1
CCCCCCCCCCCC[C@H](O)[C@@H](N)CO [C15] |  |  |  |  |  |  |  |  | >1 | 0.26 | >1 | 0.39 | >1 | 0.29 | >1 | 0.66 | 1 | 0.08 | >1 | 0.09 | CI (Combination Index) [4, 8]: >1; Fa (fraction affected) [4, 8]: 0.06; CI (Combination Index) [4, 9]: >1; Fa (fraction affected) [4, 9]: 0.07; CI (Combination Index) [5, 6]: 0.5; Fa (fraction affected) [5, 6]: 0.657; CI (Combination Index) [5, 7]: 1.0; Fa (fraction affected) [5, 7]: 0.701; CI (Combination Index) [5, 8]: 1.2; Fa (fraction affected) [5, 8]: 0.906; CI (Combination Index) [5, 9]: 0.4; Fa (fraction affected) [5, 9]: 0.999
CCCCCCCCCCCCCCCCC[C@H](O)[C@@H](N)CO [C20, (2S,3S)-2-amino-1,3-icosanediol] | 0.8 | 0.287 | 0.4 | 0.852 | 0.3 | 0.971 | 0.1 | 0.998 |  |  |  |  |  |  |  |  |  |  |  |  | C.I. of D-threo-PPMP with fenretinide+L-threo-sphinganine (three drug combination) ([2]; 2% oxygen): < 1; C.I. (Combination Index) with fenretinide [2]: < 1
CCCCCCCCCCC[C@H](O)[C@@H](N)CO [C14] |  |  |  |  |  |  |  |  | >1 | 0.32 | >1 | 0.40 | >1 | 0.21 | >1 | 0.69 | >1 | 0.10 | >1 | 0.10 | CI (Combination Index) [4, 8]: >1; Fa (fraction affected) [4, 8]: 0.12; CI (Combination Index) [4, 9]: >1; Fa (fraction affected) [4, 9]: 0.08; CI (Combination Index) [5, 6]: 0.6; Fa (fraction affected) [5, 6]: 0.342; CI (Combination Index) [5, 7]: 0.9; Fa (fraction affected) [5, 7]: 0.739; CI (Combination Index) [5, 8]: 1.1; Fa (fraction affected) [5, 8]: 0.968; CI (Combination Index) [5, 9]: 1.6; Fa (fraction affected) [5, 9]: 0.974
CCCCCCCCCCCCCCC[C@H](O)[C@@H](N)CO [C18, (2S,3S)-2-amino-1,3-octadecanediol, reference compound] | 1.2 | 0.243 | 0.6 | 0.756 | 0.9 | 0.824 | 0.6 | 0.961 | >1 | 0.16 | >1 | 0.29 | >1 | 0.29 | 0.33 | 0.73 | >1 | 0.20 | 1 | 0.11 | CI (Combination Index) [4, 8]: >1; Fa (fraction affected) [4, 8]: 0.35; CI (Combination Index) [4, 9]: >1; Fa (fraction affected) [4, 9]: 0.94; CI (Combination Index) [5, 6]: 0.5; Fa (fraction affected) [5, 6]: 0.604; CI (Combination Index) [5, 7]: 0.8; Fa (fraction affected) [5, 7]: 0.880; CI (Combination Index) [5, 8]: 1.1; Fa (fraction affected) [5, 8]: 0.984; CI (Combination Index) [5, 9]: 1.5; Fa (fraction affected) [5, 9]: 0.989
CCCCCCCCC[C@H](O)[C@@H](N)CO [C12] | 1.0 | 0.217 | 1.0 | 0.642 | 0.9 | 0.951 | 1.2 | 0.975 | >1 | 0.27 | 0.76 | 0.44 | >1 | 0.42 | >1 | 0.54 | 1 | 0.17 | >1 | 0.30 | CI (Combination Index) [4, 8]: >1; Fa (fraction affected) [4, 8]: 0.29; CI (Combination Index) [4, 9]: >1; Fa (fraction affected) [4, 9]: 0.30; CI (Combination Index) [5, 6]: 0.6; Fa (fraction affected) [5, 6]: 0.464; CI (Combination Index) [5, 7]: 0.6; Fa (fraction affected) [5, 7]: 0.788; CI (Combination Index) [5, 8]: 0.7; Fa (fraction affected) [5, 8]: 0.951; CI (Combination Index) [5, 9]: 1.0; Fa (fraction affected) [5, 9]: 0.965
